{"source": "patent US4415546A", "about": "“Biologically active analogs of ACTH and radioimmuno assay therefor” (priority 1981, dated 1983)", "key": {"ACTH antiserum 46-1": {"target": "ACTH antiserum 46-1", "assay": "saturation curves of ACTH antiserum with labeled ACTH", "assay_type": "binding, rabbit", "description": "Varying amounts of labeled ACTH were incubated with the antiserum at a final dilution of 1:58,000 in a total volume of 200 μl for 2 hr. at room temperature. Blanks containing no antiserum were included for each point.\n25 μl of this washed protein A immunoprecipitant was added and the incubation was continued at 4° for 18 hr. One ml of assay buffer at 4° was added to a series of tubes and the tubes were then centrifuged at 2500 rpm for 15 min in a Beckman model TJ-6 refrigerated centrifuge.\nThe tubes containing [^3 H]-ACTH were processed similarly, drained, wiped and then 0.5 ml 0.1 N NaOH was added. The tubes were stirred on a Vortex mixer for 20 sec. and incubated at 37° for 30 min. An aliquot (0.4 ml) of the NaOH extract was mixed with phase combininhg scintillant (PCS, Amersham) and counted in a Packard PRIAS scintillation counter."}, "[1]": {"tested_on": "isolated rat adrenocortical cells", "assay": "isolated rat adrenocortical cell assay (corticosterone production)", "assay_type": "cell-based"}, "ACTH antiserum": {"tested_on": "ACTH antiserum", "assay": "standard radioimmunoassay, displacement of [125I]-Tyr23,Phe2,Nle4-ACTH (1-38) from ACTH antiserum", "assay_type": "binding, rabbit", "description": "Standard radioimmunoassays were performed as follows: Unlabeled ACTH or other peptides in a volume of 50 μl were mixed with 50 μl antiserum and 50 μl Protein A immunoprecipitant washed as described above. All components were prepared in assay buffer and incubated at 4° for 24 hr. […] One ml of assay buffer was added and the tubes were processed as described above for counting in the Beckman 4000 counter."}, "steroidogenesis": {"tested_on": "steroidogenesis", "details": "literature values; cited from earlier work"}, "[2]": {"details": "isolated rat adrenocortical cells, result in words"}}, "note": "Read-outs that look alike come from different tables or passages of the source. No end group written: not given here."}
{"substance": "[^125 I]-Tyr^23,Phe^2,Nle^4 -ACTH (1-38)", "values": [{"measurement": "Kd", "setting": "ACTH antiserum 46-1; saturation binding, no preincubation, read-out: concentration needed for half-maximal binding of the radioligand", "result": "96 ± 16", "unit": "pM"}, {"measurement": "EC50", "setting": "[1]; corticosterone production, 37° for 1 hr, non-linear least squares analysis, read-out: concentration required for half maximal stimulation of steroidogenesis", "result": "40.7 ± 6.9", "unit": "pM"}, {"measurement": "steroidogenic potency compared with ACTH", "setting": "[1]; [2]", "result": "indistinguishable from that of ACTH"}]}
{"substance": "monoiodo Tyr^23,Phe^2,Nle^4 -ACTH (1-38)", "values": [{"measurement": "displacement curve compared with ACTH", "setting": "ACTH antiserum; result in words", "result": "identical"}, {"measurement": "steroidogenic potency compared with ACTH", "setting": "[1]; [2]", "result": "equipotent with ACTH"}]}
{"substance": "Phe^2, Nle^4 -ACTH-(1-38)", "values": [{"measurement": "maximal stimulation of corticosterone production compared with human ACTH", "setting": "[1]; [2]", "result": "same maximal degree as human ACTH"}, {"measurement": "steroidogenic potency compared with ACTH", "setting": "[1]; [2]", "result": "as potent as ACTH"}]}
{"substance": "H-Ser^1 -Tyr-Ser-Met-Glu^5 -His-Phe-Arg-Trp-Gly^10 -Lys-Pro-Val-Gly-Lys^15 -Lys-Arg-Arg-Pro-Val^20 -Lys-Val-Tyr-Pro-Asn^25 -Gly-Ala-Glu-Asp-Glu^30 -Ser-Ala-Glu-Ala-Phe^35 -Pro-Leu-Glu-Phe^39 -Oh [ACTH]", "values": [{"measurement": "IC50", "setting": "ACTH antiserum; preincubation of the antiserum with the competing peptide, read-out: value for 50% displacement of radioligand", "result": "20.3 ± 3.3", "unit": "pM"}, {"measurement": "equivalents of unlabeled hormone for 50% displacement of the radioligand", "setting": "ACTH antiserum; under the preincubation conditions", "result": "less than one equivalent"}, {"measurement": "equivalents of unlabeled hormone for 50% displacement of the radioligand", "setting": "ACTH antiserum; without preincubation", "result": "one equivalent"}, {"measurement": "Kd", "setting": "ACTH antiserum 46-1; from saturation curves, antiserum dilution 1:58,000, read-out: apparent dissociation constant for the interaction with antiserum 46-1", "result": "96 ± 16", "unit": "pM"}]}
{"substance": "[^125 I]ACTH: 125I labelled natural ACTH prepared by a lactoperoxidase process (McIlhinney and Schulster) (SYSMEHFRWGKPVGKKRRPVKVYPNGAEDESAEAFPLEF; also: 125I label (lactoperoxidase); UniProt P01189 138-176, looked up)", "values": [{"measurement": "steroidogenic activity / potency relative to natural ACTH", "setting": "steroidogenesis", "result": 50, "unit": "%"}]}
